Some targets named below: Histamine H3 receptor (Homo sapiens, UniProt Q9Y5N1); Mu-type opioid receptor (Homo sapiens, UniProt P35372); D(1A) dopamine receptor (Homo sapiens, UniProt P21728); D(3) dopamine receptor (Homo sapiens, UniProt P35462).
The target of assay [1] is T1, Amine oxidase [flavin-containing] A (Homo sapiens, UniProt P21397).
T1 sequence (P21397 whole entry): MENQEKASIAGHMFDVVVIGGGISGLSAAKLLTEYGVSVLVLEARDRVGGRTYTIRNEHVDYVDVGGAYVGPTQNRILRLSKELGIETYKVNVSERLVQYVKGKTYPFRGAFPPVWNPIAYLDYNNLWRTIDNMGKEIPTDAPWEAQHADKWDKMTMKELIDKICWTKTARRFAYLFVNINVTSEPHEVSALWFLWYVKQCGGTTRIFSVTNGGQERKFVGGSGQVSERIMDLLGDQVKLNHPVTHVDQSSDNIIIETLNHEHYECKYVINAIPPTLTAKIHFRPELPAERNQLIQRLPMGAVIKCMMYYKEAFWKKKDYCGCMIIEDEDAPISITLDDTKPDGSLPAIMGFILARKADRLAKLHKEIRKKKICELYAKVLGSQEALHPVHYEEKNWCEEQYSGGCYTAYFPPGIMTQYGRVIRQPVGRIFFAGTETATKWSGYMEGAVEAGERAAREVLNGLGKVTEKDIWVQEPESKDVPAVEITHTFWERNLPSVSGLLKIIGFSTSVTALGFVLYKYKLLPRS
Type of assay: functional.

Assay [2] has as its target T2, 5-hydroxytryptamine receptor 1A (Homo sapiens, UniProt P08908).
T2 sequence (P08908 whole entry): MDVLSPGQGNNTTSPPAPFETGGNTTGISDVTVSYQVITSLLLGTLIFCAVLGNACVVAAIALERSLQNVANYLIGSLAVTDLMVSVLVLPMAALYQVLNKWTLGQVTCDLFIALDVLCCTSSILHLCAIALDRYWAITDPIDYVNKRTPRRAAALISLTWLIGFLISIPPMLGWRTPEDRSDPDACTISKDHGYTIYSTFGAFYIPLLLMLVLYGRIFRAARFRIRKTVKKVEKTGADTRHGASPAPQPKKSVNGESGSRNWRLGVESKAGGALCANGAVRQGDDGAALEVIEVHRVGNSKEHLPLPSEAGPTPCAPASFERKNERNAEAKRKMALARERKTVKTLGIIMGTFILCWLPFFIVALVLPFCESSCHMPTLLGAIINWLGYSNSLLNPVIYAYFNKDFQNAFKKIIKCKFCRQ

The target of assay [3] is 3',5'-cyclic-AMP phosphodiesterase 4A (Homo sapiens, UniProt P27815). Type of assay: functional.
Chain of 3',5'-cyclic-AMP phosphodiesterase 4A (P27815 whole entry): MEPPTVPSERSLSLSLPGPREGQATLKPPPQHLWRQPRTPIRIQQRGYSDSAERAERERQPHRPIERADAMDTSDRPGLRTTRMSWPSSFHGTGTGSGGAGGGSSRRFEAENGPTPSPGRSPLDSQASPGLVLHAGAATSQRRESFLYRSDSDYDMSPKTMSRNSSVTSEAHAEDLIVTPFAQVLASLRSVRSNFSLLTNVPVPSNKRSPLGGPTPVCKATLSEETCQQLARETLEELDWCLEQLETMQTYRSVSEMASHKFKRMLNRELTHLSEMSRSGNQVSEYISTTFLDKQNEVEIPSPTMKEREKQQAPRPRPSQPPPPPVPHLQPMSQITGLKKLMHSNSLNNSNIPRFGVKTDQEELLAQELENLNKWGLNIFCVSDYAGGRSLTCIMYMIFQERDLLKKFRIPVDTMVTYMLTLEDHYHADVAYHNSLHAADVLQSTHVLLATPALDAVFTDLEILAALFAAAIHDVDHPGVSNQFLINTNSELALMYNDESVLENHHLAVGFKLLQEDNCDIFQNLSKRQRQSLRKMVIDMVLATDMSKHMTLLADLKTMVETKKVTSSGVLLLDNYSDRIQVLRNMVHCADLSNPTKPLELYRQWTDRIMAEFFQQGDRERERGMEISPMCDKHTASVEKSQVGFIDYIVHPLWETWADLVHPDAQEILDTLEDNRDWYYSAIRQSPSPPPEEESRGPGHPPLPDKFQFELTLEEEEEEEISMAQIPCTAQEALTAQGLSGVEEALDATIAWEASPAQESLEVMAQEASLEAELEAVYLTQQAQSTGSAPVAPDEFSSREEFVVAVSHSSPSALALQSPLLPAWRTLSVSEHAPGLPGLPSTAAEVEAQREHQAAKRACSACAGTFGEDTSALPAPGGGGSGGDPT
The target of the next assay is T3, Estrogen receptor (Homo sapiens, UniProt P03372).
T3 sequence (P03372 whole entry): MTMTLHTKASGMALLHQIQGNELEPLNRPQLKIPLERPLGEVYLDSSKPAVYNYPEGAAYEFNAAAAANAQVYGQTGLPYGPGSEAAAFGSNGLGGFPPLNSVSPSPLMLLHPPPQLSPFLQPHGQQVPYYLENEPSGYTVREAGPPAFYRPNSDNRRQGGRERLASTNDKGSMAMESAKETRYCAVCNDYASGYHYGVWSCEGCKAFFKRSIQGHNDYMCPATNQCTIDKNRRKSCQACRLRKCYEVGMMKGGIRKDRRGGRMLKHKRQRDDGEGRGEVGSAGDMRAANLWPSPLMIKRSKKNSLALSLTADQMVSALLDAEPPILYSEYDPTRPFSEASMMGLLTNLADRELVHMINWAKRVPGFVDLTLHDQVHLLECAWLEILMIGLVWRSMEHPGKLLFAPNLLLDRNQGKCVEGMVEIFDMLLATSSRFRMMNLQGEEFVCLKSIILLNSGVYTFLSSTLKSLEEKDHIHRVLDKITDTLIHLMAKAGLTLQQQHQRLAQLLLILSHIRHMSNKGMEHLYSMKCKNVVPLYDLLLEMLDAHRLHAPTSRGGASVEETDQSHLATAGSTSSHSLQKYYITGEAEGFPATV

The target of another assay is Prothrombin (Homo sapiens, UniProt P00734). Type of assay: functional.
Assay [4] concerns the target Prostaglandin G/H synthase 1 (Homo sapiens, UniProt P23219). Type of assay: functional.
Assay [5] deals with 5-hydroxytryptamine receptor 2B (Homo sapiens, UniProt P41595). Type of assay: functional, cell-based.
Chain of 5-hydroxytryptamine receptor 2B (P41595 whole entry): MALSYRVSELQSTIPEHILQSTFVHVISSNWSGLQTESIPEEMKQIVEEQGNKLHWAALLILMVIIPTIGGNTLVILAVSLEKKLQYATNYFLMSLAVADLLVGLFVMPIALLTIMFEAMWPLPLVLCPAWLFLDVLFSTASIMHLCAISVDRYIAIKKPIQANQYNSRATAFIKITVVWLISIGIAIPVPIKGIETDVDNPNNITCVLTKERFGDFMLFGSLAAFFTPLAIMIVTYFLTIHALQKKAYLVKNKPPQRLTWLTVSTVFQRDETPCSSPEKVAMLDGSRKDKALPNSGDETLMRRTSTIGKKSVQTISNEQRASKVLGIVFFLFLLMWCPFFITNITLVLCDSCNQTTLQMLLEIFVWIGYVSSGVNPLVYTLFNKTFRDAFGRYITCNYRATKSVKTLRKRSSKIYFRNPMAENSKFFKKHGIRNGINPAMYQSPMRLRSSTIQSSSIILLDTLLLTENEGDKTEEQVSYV
For a further assay, the target named is T4, Thromboxane A2 receptor (Homo sapiens, UniProt P21731).
T4 sequence (P21731 whole entry): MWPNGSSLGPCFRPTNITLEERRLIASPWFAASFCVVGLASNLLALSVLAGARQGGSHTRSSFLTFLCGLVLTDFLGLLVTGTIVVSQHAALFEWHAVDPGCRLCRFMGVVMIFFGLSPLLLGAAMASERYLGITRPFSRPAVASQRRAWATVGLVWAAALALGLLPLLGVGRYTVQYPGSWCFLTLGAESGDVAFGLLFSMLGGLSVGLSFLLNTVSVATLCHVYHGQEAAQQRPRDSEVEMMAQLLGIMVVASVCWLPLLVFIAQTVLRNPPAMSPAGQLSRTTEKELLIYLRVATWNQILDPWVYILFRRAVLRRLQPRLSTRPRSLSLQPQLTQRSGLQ
Type of assay: functional, cell-based.

Bounds are passed on as bounds.
Also: assay procedure not described here.

Chain of Prostaglandin G/H synthase 1 (P23219 whole entry): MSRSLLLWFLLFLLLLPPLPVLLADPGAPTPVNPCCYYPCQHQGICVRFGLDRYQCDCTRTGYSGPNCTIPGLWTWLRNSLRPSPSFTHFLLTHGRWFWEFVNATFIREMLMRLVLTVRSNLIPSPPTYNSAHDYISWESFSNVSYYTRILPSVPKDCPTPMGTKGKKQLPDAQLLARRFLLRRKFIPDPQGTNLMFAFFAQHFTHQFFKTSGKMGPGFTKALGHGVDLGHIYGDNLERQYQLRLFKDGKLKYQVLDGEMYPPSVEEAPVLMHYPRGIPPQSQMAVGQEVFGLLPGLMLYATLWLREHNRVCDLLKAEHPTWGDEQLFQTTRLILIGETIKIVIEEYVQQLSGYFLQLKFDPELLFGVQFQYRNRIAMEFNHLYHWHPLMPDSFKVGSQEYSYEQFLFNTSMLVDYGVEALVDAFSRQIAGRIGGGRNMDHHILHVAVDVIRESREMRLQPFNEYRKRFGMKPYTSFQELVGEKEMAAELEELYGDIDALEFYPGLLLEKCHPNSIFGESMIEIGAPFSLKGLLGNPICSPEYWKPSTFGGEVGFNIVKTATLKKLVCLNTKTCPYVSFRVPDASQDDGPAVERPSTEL
Chain of D(3) dopamine receptor (P35462 whole entry): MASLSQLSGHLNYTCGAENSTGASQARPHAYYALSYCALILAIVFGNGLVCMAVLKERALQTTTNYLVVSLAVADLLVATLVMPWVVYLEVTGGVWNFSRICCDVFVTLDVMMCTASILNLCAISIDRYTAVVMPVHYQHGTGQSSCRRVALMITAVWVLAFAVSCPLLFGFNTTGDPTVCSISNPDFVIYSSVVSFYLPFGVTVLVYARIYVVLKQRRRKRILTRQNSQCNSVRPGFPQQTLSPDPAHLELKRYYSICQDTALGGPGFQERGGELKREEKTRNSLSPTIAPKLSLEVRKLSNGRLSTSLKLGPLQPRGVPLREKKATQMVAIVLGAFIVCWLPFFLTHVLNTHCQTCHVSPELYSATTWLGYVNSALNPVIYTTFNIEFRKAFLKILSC
Chain of Histamine H3 receptor (Q9Y5N1 whole entry): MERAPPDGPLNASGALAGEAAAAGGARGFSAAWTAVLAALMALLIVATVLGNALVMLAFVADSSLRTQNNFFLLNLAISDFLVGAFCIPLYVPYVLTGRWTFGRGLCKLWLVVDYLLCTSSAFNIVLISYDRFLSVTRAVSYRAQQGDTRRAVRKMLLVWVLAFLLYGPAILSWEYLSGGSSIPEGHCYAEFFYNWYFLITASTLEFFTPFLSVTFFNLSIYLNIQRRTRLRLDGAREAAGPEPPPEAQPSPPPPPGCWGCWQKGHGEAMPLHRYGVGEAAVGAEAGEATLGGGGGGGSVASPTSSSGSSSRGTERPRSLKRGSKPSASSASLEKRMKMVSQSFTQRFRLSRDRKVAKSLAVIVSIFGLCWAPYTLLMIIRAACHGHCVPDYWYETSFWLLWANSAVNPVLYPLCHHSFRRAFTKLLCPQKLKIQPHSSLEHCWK
Chain of Mu-type opioid receptor (P35372 whole entry): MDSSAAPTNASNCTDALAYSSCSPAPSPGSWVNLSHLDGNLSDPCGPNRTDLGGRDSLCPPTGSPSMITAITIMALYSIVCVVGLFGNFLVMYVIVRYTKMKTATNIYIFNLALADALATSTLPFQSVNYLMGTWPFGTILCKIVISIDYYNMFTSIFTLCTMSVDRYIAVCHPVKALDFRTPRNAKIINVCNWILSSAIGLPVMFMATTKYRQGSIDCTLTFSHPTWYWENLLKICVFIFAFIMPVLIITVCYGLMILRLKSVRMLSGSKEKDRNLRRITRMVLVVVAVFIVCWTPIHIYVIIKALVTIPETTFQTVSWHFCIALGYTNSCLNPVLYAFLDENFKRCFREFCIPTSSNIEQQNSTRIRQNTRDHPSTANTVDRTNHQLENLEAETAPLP
Chain of D(1A) dopamine receptor (P21728 whole entry): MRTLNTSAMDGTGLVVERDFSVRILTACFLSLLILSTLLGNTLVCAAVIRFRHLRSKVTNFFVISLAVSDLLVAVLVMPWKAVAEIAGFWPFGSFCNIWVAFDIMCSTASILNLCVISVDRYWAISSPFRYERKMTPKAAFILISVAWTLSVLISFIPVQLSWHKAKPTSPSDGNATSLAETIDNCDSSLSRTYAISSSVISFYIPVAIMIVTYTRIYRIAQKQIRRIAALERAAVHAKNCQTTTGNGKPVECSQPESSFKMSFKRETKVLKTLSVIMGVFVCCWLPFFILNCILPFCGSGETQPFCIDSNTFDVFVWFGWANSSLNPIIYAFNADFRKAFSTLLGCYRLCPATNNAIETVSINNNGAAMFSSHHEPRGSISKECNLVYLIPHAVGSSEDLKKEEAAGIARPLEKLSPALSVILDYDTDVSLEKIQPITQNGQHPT

As usually defined, the AC50 is the concentration giving half of the maximal activity seen. For `CCCCCCCC(=O)N[C@H](CN1CCCC1)[C@H](O)c1ccc2c(c1)OCCO2`, the AC50 at Histamine H3 receptor is more than 30 µM; on Mu-type opioid receptor, 14.1 µM; in [1], more than 30 µM; on D(1A) dopamine receptor it was more than 30 µM; at D(3) dopamine receptor, more than 30 µM; in [2], 14.3 µM. For the same compound, the half-maximal activity concentration (AC50) in assay [3] was more than 30 µM; on Estrogen receptor, more than 30 µM; on Prothrombin, more than 30 µM; in assay [4], 10.1 µM; in assay [5] it was more than 30 µM; at Thromboxane A2 receptor, more than 30 µM.
As for `C[C@]1(COc2ccc(N3CCC(Oc4ccc(OC(F)(F)F)cc4)CC3)cc2)Cn2cc([N+](=O)[O-])nc2O1`, the AC50 (on Histamine H3 receptor; at Mu-type opioid receptor; in assay [1]; at D(1A) dopamine receptor; at D(3) dopamine receptor; in assay [2]) was more than 30 µM each time. For the same compound, the AC50 in assay [3] was more than 30 µM; on Estrogen receptor, more than 30 µM; at Prothrombin it was more than 30 µM; in assay [4], 27.9 µM; in assay [5] it was more than 30 µM; at Thromboxane A2 receptor, more than 30 µM.
Turning to `O=C(Nc1nc(-c2cc(Cl)cs2)c(N2CCN(C3CCCCC3)CC2)s1)c1cnc(N2CCC(C(=O)O)CC2)c(Cl)c1` [AVATROMBOPAG], the AC50 (at Histamine H3 receptor; on Mu-type opioid receptor; in [1]; on D(1A) dopamine receptor; at D(3) dopamine receptor; in assay [2]) was more than 30 µM in each case. In addition, the AC50 (in assay [3]; on Estrogen receptor; on Prothrombin; in [4]; in assay [5]; on Thromboxane A2 receptor) was more than 30 µM throughout.
On to `CO[C@@]1(NC(=O)CSCC#N)C(=O)N2C(C(=O)O)=C(CSc3nnnn3C)CS[C@@H]21` [CEFMETAZOLE], for which the AC50 (at Histamine H3 receptor; on Mu-type opioid receptor; in [1]; at D(1A) dopamine receptor; at D(3) dopamine receptor; in assay [2]) was more than 30 µM each time. Moreover, the AC50 (in assay [3]; on Estrogen receptor; on Prothrombin; in [4]; in assay [5]; at Thromboxane A2 receptor) was more than 30 µM in each case.
On to `CO/N=C(\C(=O)N[C@@H]1C(=O)N2C(C(=O)[O-])=C(C[n+]3cccc4c3CCC4)CS[C@H]12)c1csc(N)n1` [CEFPIROME], for which the half-maximal activity concentration (AC50) (at Histamine H3 receptor; on Mu-type opioid receptor; in assay [1]; on D(1A) dopamine receptor; at D(3) dopamine receptor; in [2]) was more than 30 µM each time. Moreover, the AC50 (in assay [3]; at Estrogen receptor; at Prothrombin; in assay [4]; in assay [5]; at Thromboxane A2 receptor) was more than 30 µM throughout.
Turning to `CCC(=O)O[C@@H]1CC(=O)O[C@H](C)C/C=C/C=C/[C@H](OC(C)=O)[C@H](C)C[C@H](CC=O)[C@H](O[C@@H]2O[C@H](C)[C@@H](O[C@H]3C[C@@](C)(OC(C)=O)[C@@H](OC(=O)CC)[C@H](C)O3)[C@H](N(C)C)[C@H]2O)[C@H]1OC` [MIOCAMYCIN], the AC50 (on Histamine H3 receptor; at Mu-type opioid receptor; in assay [1]; on D(1A) dopamine receptor; at D(3) dopamine receptor; in assay [2]) was more than 30 µM in each case. Further, the AC50 (in assay [3]; on Estrogen receptor; at Prothrombin; in [4]; in assay [5]; at Thromboxane A2 receptor) was more than 30 µM throughout.

These data come from ChEMBL document CHEMBL5291721, “A preclinical secondary pharmacology resource illuminates target-adverse drug reaction associations of marketed drugs” (Nat Commun, 2023).
